Experimental data from EP0413289B1 (priority 1989, dated 1991).
In brackets after ≈: the same amount, converted by molar mass.

Key:
[1] = tested on: panel of fifteen human rhinovirus (HRV) serotypes; assay: plaque reduction assay, panel of fifteen human rhinovirus serotypes (MIC50/MIC80); format: cell-based; conditions: for MIC₈₀ (N) (Rhinovirus): concentration required to inhibit 80% of the tested serotypes, N in parentheses = number of serotypes tested; for MIC50: concentration required to inhibit 50% of the tested serotypes, HeLa (Wisconsin) cells, read-out: MIC₅₀ (Rhinovirus)
Procedure: (§1) The MIC values were determined by a standard plaque reduction assay as follows: HeLa (Wisconsin) cells in monolayers were infected at a concentration of virus to give approximately 80 plaques per monolayer in the virus control (no drug present). The compound to be tested was serially diluted and included in the agar-medium overlay and in some cases, during the adsorption period as well. The MIC was determined to be that concentration of compound which reduced the number of plaques by 50% with respect to the untreated virus control.
(§2) In the standard test procedures, the compounds were tested against a panel of fifteen human rhinovirus (HRV) serotypes, namely HRV-2, -1A, -1B, -6, -14, -21, -22, -15, -25, -30, -50, -67, -89, -86 and -41. The MIC value for each rhinovirus serotype was determined, and the efficacy of each compound was determined in terms of MIC₅₀ and MIC₈₀ values, which is the concentration of the compound required to inhibit 50% and 80%, respectively, of the tested serotypes.
The following Table gives the testing results with the compounds of the invention. For some of the compounds, the MIC₅₀ and MIC₈₀ values are based on the testing of fewer than 15 rhinovirus serotypes. In these cases the number of serotypes (N) is indicated in parentheses after the MIC₈₀ figure.

[2] = tested on: Polio 2; assay: microbe, parasite or virus in culture; format: cell-based; conditions: HeLa, read-out: MIC (Polio 2)
[3] = tested on: HRV-41; assay: plaque reduction assay, rhinovirus serotype 41; format: cell-based, human rhinovirus (HRV); conditions: Enterovirus, HRV41, 50% plaque reduction, HeLa (Wisconsin) cells, read-out: MIC
Procedure: as §1, §2
(§3) The following Table compares the MIC values for the compound of Example 10(c) and the methylated derivative of Example 11(c) against 15 rhinovirus serotypes: […]

[4] = tested on: HRV-1A; assay: plaque reduction assay, rhinovirus serotype 1A; format: cell-based, human rhinovirus (HRV); conditions: 50% plaque reduction, HeLa (Wisconsin) cells, read-out: MIC
Procedure: as §1, §2, §3

[5] = tested on: HRV-15; assay: plaque reduction assay, rhinovirus serotype 15; format: cell-based, human rhinovirus (HRV); conditions: Enterovirus, HRV15, 50% plaque reduction, HeLa (Wisconsin) cells, read-out: MIC
Procedure: as §1, §2, §3

[6] = tested on: HRV-67; assay: plaque reduction assay, rhinovirus serotype 67; format: cell-based, human rhinovirus (HRV); conditions: Enterovirus, HRV67, 50% plaque reduction, HeLa (Wisconsin) cells, read-out: MIC
Procedure: as §1, §2, §3

[7] = tested on: HRV-2; assay: plaque reduction assay, rhinovirus serotype 2; format: cell-based, human rhinovirus (HRV); conditions: 50% plaque reduction, HeLa (Wisconsin) cells, read-out: MIC
Procedure: as §1, §2, §3

[8] = tested on: HRV-22; assay: plaque reduction assay, rhinovirus serotype 22; format: cell-based, human rhinovirus (HRV); conditions: Enterovirus, HRV22, 50% plaque reduction, HeLa (Wisconsin) cells, read-out: MIC
Procedure: as §1, §2, §3

[9] = tested on: HRV-50; assay: plaque reduction assay, rhinovirus serotype 50; format: cell-based, human rhinovirus (HRV); conditions: Enterovirus, HRV50, 50% plaque reduction, HeLa (Wisconsin) cells, read-out: MIC
Procedure: as §1, §2, §3

[10] = tested on: HRV-1B; assay: plaque reduction assay, rhinovirus serotype 1B; format: cell-based, human rhinovirus (HRV); conditions: 50% plaque reduction, HeLa (Wisconsin) cells, read-out: MIC
Procedure: as §1, §2, §3

[11] = tested on: HRV-25; assay: plaque reduction assay, rhinovirus serotype 25; format: cell-based, human rhinovirus (HRV); conditions: Enterovirus, HRV25, 50% plaque reduction, HeLa (Wisconsin) cells, read-out: MIC
Procedure: as §1, §2, §3

[12] = tested on: HRV-30; assay: plaque reduction assay, rhinovirus serotype 30; format: cell-based, human rhinovirus (HRV); conditions: Enterovirus, HRV30, 50% plaque reduction, HeLa (Wisconsin) cells, read-out: MIC
Procedure: as §1, §2, §3

[13] = tested on: HRV-6; assay: plaque reduction assay, rhinovirus serotype 6; format: cell-based, human rhinovirus (HRV); conditions: Enterovirus, HRV6, 50% plaque reduction, HeLa (Wisconsin) cells, read-out: MIC
Procedure: as §1, §2, §3

[14] = tested on: HRV-89; assay: plaque reduction assay, rhinovirus serotype 89; format: cell-based, human rhinovirus (HRV); conditions: 50% plaque reduction, HeLa (Wisconsin) cells, read-out: MIC
Procedure: as §1, §2, §3

[15] = tested on: HRV-86; assay: plaque reduction assay, rhinovirus serotype 86; format: cell-based, human rhinovirus (HRV); conditions: Enterovirus, HRV86, 50% plaque reduction, HeLa (Wisconsin) cells, read-out: MIC
Procedure: as §1, §2, §3

[16] = tested on: HRV-14; assay: plaque reduction assay, rhinovirus serotype 14; format: cell-based, human rhinovirus (HRV); conditions: 50% plaque reduction, HeLa (Wisconsin) cells, read-out: MIC
Procedure: as §1, §2, §3

[17] = tested on: HRV-21; assay: plaque reduction assay, rhinovirus serotype 21; format: cell-based, human rhinovirus (HRV); conditions: Enterovirus, HRV21, 50% plaque reduction, HeLa (Wisconsin) cells, read-out: MIC
Procedure: as §1, §2, §3

## Cc1cc(CCCCCOc2ccc(-c3nnco3)cc2)on1 [Example 1, 3-Methyl-5-{5-[4-(1,3,4-oxadiazol-2-yl)phenoxy]pentyl}-isoxazole, reference compound]
[1]
  MIC₈₀ (N) (Rhinovirus): 2.56 (1) micrograms per milliliter
[2]
  EC50: 0.05 µg/mL (≈ 0.16 µM)

## CCCc1cc(CCCOc2c(C)cc(-c3nc(C)no3)cc2C)on1 [5(e), 5-{3-[2,6-dimethyl-4-(3-methyl-1,2,4-oxadiazol-5-yl)phenoxy]propyl}-3-(n-propyl)isoxazole]
[1]
  MIC50: 0.036 µg/mL (≈ 0.101 µM)
  MIC₈₀ (N) (Rhinovirus): 0.06 (7) micrograms per milliliter

## Cc1cc(CCCOc2c(C)cc(-c3nc(C)no3)cc2C)on1 [3(b), 5-{3-[2,6-Dimethyl-4-(3-methyl-1,2,4-oxadiazol-5-yl)-phenoxy]propyl}-3-methylisoxazole]
[1]
  MIC50: 0.026 µg/mL (≈ 0.0794 µM)
  MIC₈₀ (N) (Rhinovirus): 0.12 (15) micrograms per milliliter

## Cc1cc(CCCOc2c(C)cc(-c3nnc(C)o3)cc2C)on1 [12(d), 5-{3-[2,6-Dimethyl-4-(5-methyl-1,3,4-oxadiazol-2-yl)-phenoxy]propyl}-3-methylisoxazole]
[1]
  MIC50: 0.054 µg/mL (≈ 0.165 µM)
  MIC₈₀ (N) (Rhinovirus): 0.35 (6) micrograms per milliliter

## CCc1cc(CCCOc2c(C)cc(-c3noc(C)n3)cc2C)on1 [Example 8(c), 5-{3-[2,6-dimethyl-4-(5-methyl-1,2,4-oxadiazol-3-yl)phenoxy]propyl}-3-ethylisoxazole]
[1]
  MIC50: 0.017 µg/mL (≈ 0.0498 µM)
  MIC₈₀ (N) (Rhinovirus): 0.05 (6) micrograms per milliliter

## Cc1cc(CCCOc2c(C)cc(-c3noc(C)n3)cc2C)on1 [Example 7, 5-{3-[2,6-Dimethyl-4-(5-methyl-1,2,4-oxadiazol-3-yl)phenoxy]propyl}-3-methylisoxasole]
[1]
  MIC50: 0.012 µg/mL (≈ 0.0367 µM)
  MIC₈₀ (N) (Rhinovirus): 0.069 (13) micrograms per milliliter

## Cc1cc(CCCCCOc2c(C)cc(-c3nnc(C)o3)cc2C)on1 [Example 14, 5-{5-[2,6-Dimethyl-4-(5-methyl-1,3,4-oxadiazol-2-yl)phenoxy]pentyl}-3-methylisoxazole]
[1]
  MIC50: 0.34 µg/mL (≈ 0.957 µM)
  MIC₈₀ (N) (Rhinovirus): 0.67 (2) micrograms per milliliter

## Cc1cc(CCCCCOc2c(Cl)cc(-c3nnc(C)o3)cc2Cl)on1 [Example 11(c), 5-{5-[2,6-dichloro-4-(5-methyl-1,3,4-oxadiazol-2-yl)phenoxy]pentyl}-3-methylisoxazole]
[3]
  EC50: 99 µg/mL (≈ 250 µM)
[4]
  EC50: 0.44 µg/mL (≈ 1.11 µM)
[1]
  MIC50: 0.14 µg/mL (≈ 0.353 µM)
  MIC₈₀ (N) (Rhinovirus): 0.46 (15) micrograms per milliliter
[5]
  EC50: 0.42 µg/mL (≈ 1.06 µM)
[6]
  EC50: 0.1 µg/mL (≈ 0.252 µM)
[7]
  EC50: 0.016 µg/mL (≈ 0.0404 µM)
[8]
  EC50: 0.018 µg/mL (≈ 0.0454 µM)
[9]
  EC50: 0.041 µg/mL (≈ 0.103 µM)
[10]
  EC50: 0.14 µg/mL (≈ 0.353 µM)
[11]
  EC50: 0.7 µg/mL (≈ 1.77 µM)
[12]
  EC50: 0.031 µg/mL (≈ 0.0782 µM)
[13]
  EC50: 0.46 µg/mL (≈ 1.16 µM)
[14]
  EC50: 0.01 µg/mL (≈ 0.0252 µM)
[15]
  EC50: 0.57 µg/mL (≈ 1.44 µM)
[16]
  EC50: 0.19 µg/mL (≈ 0.479 µM)
[17]
  EC50: 0.0092 µg/mL (≈ 0.0232 µM)

## Cc1cc(CCCCCOc2c(C)cc(-c3nc(C)no3)cc2C)on1 [2(b), 5-{5-[2,6-dimethyl-4-(3-methyl-1,2,4-oxadiazol-5-yl)phenoxy]pentyl}-3-methylisoxazole]
[1]
  MIC50: 0.053 µg/mL (≈ 0.149 µM)
  MIC₈₀ (N) (Rhinovirus): 0.42 (6) micrograms per milliliter

## Cc1cc(CCCCCCCOc2ccc(-c3nnc(C)o3)cc2)on1 [Example 13, 3-Methyl-5-{7-[4-(5-methyl-1,3,4-oxadiazol-2-yl)phenoxy]-heptyl}isoxazole]
[1]
  MIC50: 2.3 µg/mL (≈ 6.47 µM)
  MIC₈₀ (N) (Rhinovirus): 3.2 (2) micrograms per milliliter

## CCc1cc(CCCOc2c(C)cc(-c3nc(C)no3)cc2C)on1 [4(d), 5-{3-[2,6-Dimethyl-4-(3-methyl-1,2,4-oxadiazol-5-yl)-phenoxy]propyl}-3-ethylisoxazole]
[1]
  MIC50: 0.042 µg/mL (≈ 0.123 µM)
  MIC₈₀ (N) (Rhinovirus): 0.15 (15) micrograms per milliliter

## Cc1cc(CCCCCOc2c(C)cc(-c3noc(C)n3)cc2C)on1 [Example 6, 5-{5-[2,6-dimethyl-4-(5-methyl-1,2,4-oxadiazol-3-yl)phenoxy]pentyl}-3-methylisoxazole]
[1]
  MIC50: 0.018 µg/mL (≈ 0.0506 µM)
  MIC₈₀ (N) (Rhinovirus): 0.10 (5) micrograms per milliliter

## Cc1cc(CCCCCOc2c(Cl)cc(-c3nnco3)cc2Cl)on1 [Example 10(c), 5-{5-[2,6-Dichloro-4-(1,3,4-oxadiazol-2-yl)phenoxy]-pentyl}-3-methylisoxazole, reference compound]
[3]
  EC50: 2.76 µg/mL (≈ 7.22 µM)
[4]
  EC50: 1.45 µg/mL (≈ 3.79 µM)
[1]
  MIC50: 0.25 µg/mL (≈ 0.654 µM)
  MIC₈₀ (N) (Rhinovirus): 0.91 micrograms per milliliter
[5]
  EC50: 1.92 µg/mL (≈ 5.02 µM)
[6]
  EC50: 0.64 µg/mL (≈ 1.67 µM)
[7]
  EC50: 0.41 µg/mL (≈ 1.07 µM)
[8]
  EC50: 0.45 µg/mL (≈ 1.18 µM)
[9]
  EC50: 0.091 µg/mL (≈ 0.238 µM)
[10]
  EC50: 0.53 µg/mL (≈ 1.39 µM)
[11]
  EC50: 2.42 µg/mL (≈ 6.33 µM)
[2]
  EC50: 2.24 µg/mL (≈ 5.86 µM)
[12]
  EC50: 0.1 µg/mL (≈ 0.262 µM)
[13]
  EC50: 7.06 µg/mL (≈ 18.5 µM)
[14]
  EC50: 0.28 µg/mL (≈ 0.733 µM)
[15]
  EC50: 1.28 µg/mL (≈ 3.35 µM)
[16]
  EC50: 2.02 µg/mL (≈ 5.28 µM)
[17]
  EC50: 0.24 µg/mL (≈ 0.628 µM)

## CCCc1cc(CCCOc2c(C)cc(-c3noc(C)n3)cc2C)on1 [Example 9, 5-{3-[2,6-Dimethyl-4-(5-methyl-1,2,4-oxadiazol-3-yl)phenoxy]propyl}-3-propylisoxazole]
[1]
  MIC50: 0.025 µg/mL (≈ 0.0703 µM)
  MIC₈₀ (N) (Rhinovirus): 0.04 (6) micrograms per milliliter
